Values quoted from earlier work, collected in patent US11904070B2, “Tissue scaffold and scaffold composition” (Locate Therapeutics Limited, priority 2017, dated 2024).

Details: at 25° C.

Compound	Solubility in water
C[S+](C)[O-] [DMSO]	Miscible
OCC(O)CO [Glycerol]	Miscible
CN1CCCC1=O [NMP, N-Methyl-2-pyrrolidone]	Miscible

More lines, now with the values ahead:

Solubility in water	Compound
Miscible	CCO [EtOH, Ethanol]
5.8 % w/v	CC(=O)OCC(COC(C)=O)OC(C)=O [Triacetin, triacetin]
Miscible	polyethylene glycol 400 [PEG400]
